In the supplement of paper PMC10331698:
± gives the standard deviation of the averaged measurements.

Assays:
Assay in all cases: level (log10 ratio to DMSO vehicle control); higher = higher biomarker level / cell amount than vehicle control
Conditions in all cases: in DMSO
[1] = compound: FC(F)(F)C(F)(F)C(F)(F)C(F)(F)C(F)(F)C(F)(F)C(F)(F)CCI [1-Iodo-1H,1H,2H,2H-perfluorononane]
Method: (§1)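 BioMAP Diversity Plus panel of 12 human primary cell co-culture systems (3C, 4H, LPS, SAg, BT, BF4T, BE3C, CASM3C, HDF3CGF, KF3CT, MyoF, Mphg). Compounds were added 1 h before stimulation and left for 24 h (MyoF 48 h; BT 72 h for soluble read-outs or 6 d for IgG). Biomarkers were read by ELISA, cytotoxicity by SRB, PBMC viability and proliferation by Alamar Blue. Each well value was divided by the mean of 8 DMSO control wells on the same plate and log10 transformed; duplicate blinded samples were tested at 4 concentrations.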

[2] = compound: O=C(O)C(F)(F)C(F)(F)C(F)(F)C(F)(F)C(F)(F)C(F)(F)C(F)(F)C(F)(F)Cl [9-Chloro-perfluorononanoic acid]
Method: as §1

[3] = compound: O=P(O)(O)CCC(F)(F)C(F)(F)C(F)(F)C(F)(F)C(F)(F)C(F)(F)C(F)(F)C(F)(F)F [((Perfluorooctyl)ethyl)phosphonic acid]
Method: as §1

[4] = compound: OCC(F)(F)C(F)(F)C(F)(F)F [1H,1H-Heptafluorobutanol]
Method: as §1

[5] = compound: O=S(=O)(O)C(F)(F)C(F)(F)C(F)(F)C(F)(F)C(F)(F)C(F)(F)C(F)(F)C(F)(F)F [Perfluorooctanesulfonic acid]
Method: as §1

[6] = compound: O=C(O)C(F)(F)C(F)(F)C(F)(F)C(F)(F)C(F)(F)F [Perfluorohexanoic acid]
Method: as §1

[7] = compound: C=C(C)C(=O)OCC(F)(F)C(F)(F)C(F)(F)C(F)(F)C(F)(F)C(F)(F)C(F)(F)F
Method: as §1

Row | Test System | level (log10) ([1]; 6700 nM) | level (log10) ([1]; 20000 nM) | level (log10) ([2]; 6700 nM) | level (log10) ([2]; 20000 nM) | level (log10) ([3]; 6700 nM) | level (log10) ([3]; 20000 nM) | level (log10) ([3]; 60000 nM) | level (log10) ([4]; 6700 nM) | level (log10) ([4]; 20000 nM) | level (log10) ([4]; 60000 nM) | level (log10) ([5]; 6700 nM) | level (log10) ([5]; 20000 nM) | level (log10) ([5]; 60000 nM) | level (log10) ([6]; 6700 nM) | level (log10) ([6]; 20000 nM) | level (log10) ([6]; 60000 nM) | level (log10) ([7]; 6700 nM) | level (log10) ([7]; 20000 nM)
1 | SAg:CXCL9/MIG | -0.009 ± 0.0071 | 0.006 ± 0.0057 | -0.001 ± 0.013 | -0.0025 ± 0.0021 | 0.001 ± 0.0028 | 0.006 ± 0.0085 | -0.0115 ± 0.023 | -0.003 ± 0.031 | -0.001 ± 0.018 | 0.018 ± 0.014 | -0.0035 ± 0.0035 | 0.0105 ± 0.012 | 0.005 ± 0.013 | -0.0005 ± 0.0064 | -0.001 ± 0.0085 | 0.0055 ± 0.005 | -0.003 ± 0.017 | 0.009 ± 0.0014
2 | SAg:PBMC Cytotoxicity | -0.005 ± 0.045 | 0.0205 ± 0.035 | 0.032 ± 0.028 | 0.0255 ± 0.032 | -0.025 ± 0.017 | -0.04 ± 0.0042 | -0.037 ± 0.037 | -0.0165 ± 0.012 | -0.024 ± 0.024 | 0.0155 ± 0.047 | 0.0135 ± 0.0092 | 0.021 ± 0.013 | 0.0185 ± 0.013 | -0.0155 ± 0.046 | 0.002 ± 0.0028 | 0.009 ± 0.073 | 0.0115 ± 0.005 | 0.0265 ± 0.046
3 | SAg:Proliferation | -0.0025 ± 0.063 | -0.0055 ± 0.074 | -0.036 ± 0.033 | 0.02 ± 0.02 | -0.023 ± 0.023 | -0.03 ± 0.0071 | -0.0345 ± 0.077 | 0.009 ± 0.0042 | 0.008 ± 0.02 | 0.0125 ± 0.021 | 0.001 ± 0.031 | 0.0185 ± 0.011 | 0.0675 ± 0.00071 | 0.0065 ± 0.011 | 0.003 ± 0.021 | 0.027 ± 0.0042 | 0.0015 ± 0.0064 | 0.0185 ± 0.0092
4 | SAg:SRB | 0.0175 ± 0.005 | 0.031 ± 0.017 | -0.003 ± 0.0099 | -0.0105 ± 0.005 | -0.01 ± 0.021 | -0.042 ± 0.034 | -0.125 ± 0.044 | -0.0055 ± 0.011 | 0.0045 ± 0.0035 | 0.004 ± 0.0057 | 0.004 ± 0.0042 | -0.0095 ± 0.0078 | -0.0265 ± 0.011 | -0.0055 ± 0.0035 | -0.0135 ± 0.0035 | -0.001 ± 0.0028 | -0.001 ± 0.0099 | -0.0095 ± 0.021
